In patent publication US20230184759A1, “IN VITRO METHOD FOR DETECTION OF INFECTIONS CAUSED BY PSEUDOMONAS AERUGINOSA” (CONSEJO SUPERIOR DE INVESTIGACIONES CIENTIFICAS (CSIC), priority 2020, published 2023):

What was measured:
Format in all cases: binding, rabbit
As382 = test: Competitive indirect ELISA for detection of HHQ (As382, coating antigen I-7); details: for C.R. (Cross Reactivity): As382 (HHQ) assay, relative to HHQ
Method: (§1) The competitive assay was carried out in a 96 well Maxisorp flat-bottom plates, coated using 100 μL of a BSA conjugate solution in coating buffer pH=9.6. Then, plates were covered with adhesive plate sealer and incubated overnight at 4° C. The day after, plates were washed with PBST (4×300 μL) using the platewasher Biotek ELx405 HT. Sequentially, 50 μL of the corresponding sample solution, containing the analyte HHQ, PQS or HQNO (2 μM to 0.13 nM) or MH medium were added, followed by 50 μL addition of a fixed As dilution and left without agitation 30 min at RT. After another washing step, a 1/6000 dilution of goat AntiRabbit IgG-HRP in PBST was added and incubated 30 min at RT. After a final washing, 100 μL of a substrate solution was added and left 30 min at RT in the dark. Once the time was consumed, the enzymatic reaction was stopped by adding 50 μl of H2SO4 4M solution and the absorbances read at 450 nm. Absorbance data were plotted and analyzed using GraphPad software. The standard calibration curve was fitted to a four-parameter equation according to the following formula: […], where A is the maximum absorbance, B is the minimum absorbance, C is the concentration producing 50% of the maximal absorbance, and D is the slope at the inflection point of the sigmoid curve. Unless otherwise indicated, the data presented correspond to the average of at least two well replicates.
(§2) Regarding specificity studies, it was followed the experimental procedure for indirect competitive ELISA described above. It was assessed the avidity of As versus other quinolone effector molecules of the pqs system from P. aeruginosa. Each assay was run using HHQ, PQS and HQNO as analyte. Cross reactivity was calculated through the equation: […].

As385 = test: Competitive indirect ELISA for detection of PQS (As385, coating antigen I-5); details: for C.R. (Cross Reactivity): As385 (PQS) assay, relative to PQS
Method: as §1, §2

As389 = test: Competitive indirect ELISA for detection of HQNO (As389, coating antigen I-5); details: for C.R. (Cross Reactivity): As389 (HQNO) assay, relative to HQNO
Method: as §1, §2

[1] = cross reactivity study, As382 (HHQ) assay conditions
[2] = cross reactivity study, As385 (PQS) assay conditions
[3] = cross reactivity study, As389 (HQNO) assay conditions

CCCCCCCc1[nH]c2ccccc2c(=O)c1O [PQS, 2-heptyl-3-hydroxy-4-quinolone]
C.R. (Cross Reactivity) (As382): 7.16% | IC50 (As382; [1]): 37.3 nM | C.R. (Cross Reactivity) (As385): 100.00% | IC50 (As385; MH diluted 1/10, As385 dil. 1/64000, I-5 0.039 μg/mL): 6.05 ± 0.155 nM | IC50 (As385; PBS + 0.01% Tween + 0.1 mM EDTA, As385 dil. 1/48000, I-5 0.039 μg/mL): 3.87 ± 0.529 nM | IC50 (As385; [2]): 3.62 nM | C.R. (Cross Reactivity) (As389): 5.41% | IC50 (As389; [3]): 177 nM

CCCCCCCc1cc(=O)c2ccccc2n1O [HQNO, 2-heptyl-4-quinolone N-oxide]
C.R. (Cross Reactivity) (As382): 3.11% | IC50 (As382; [1]): 86 nM | C.R. (Cross Reactivity) (As385): 1.53% | IC50 (As385; [2]): 236 nM | C.R. (Cross Reactivity) (As389): 100.00% | IC50 (As389; MH diluted 1/5, As389 dil. 1/16000, I-5 0.250 μg/mL): 2.71 ± 0.035 nM | IC50 (As389; PBS at pH = 6.5, As389 dil. 1, I-5 0.250 μg/mL): 4.2 ± 0.858 nM | IC50 (As389; [3]): 9.55 nM

CCCCCCCc1cc(=O)c2ccccc2[nH]1 [HHQ, 2-heptyl-4-quinolone]
C.R. (Cross Reactivity) (As382): 100.00% | IC50 (As382; MH diluted 1/5, As382 dil. 1/64000, I-7 0.156 μg/mL): 2.85 ± 0.296 nM | IC50 (As382; PBST, As382 dil. 1/32000, I-7 0.313 μg/mL): 4.59 ± 0.287 nM | IC50 (As382; [1]): 2.67 nM | C.R. (Cross Reactivity) (As385): 13.31% | IC50 (As385; [2]): 27.2 nM | C.R. (Cross Reactivity) (As389): 36.24% | IC50 (As389; [3]): 26.4 nM
